Data as given in paper PMC2794939 (Biochemistry, 2009).

Columns and labels:
A/M2 wt channel [1] = molecular target: T1, A/M2 wt channel (Influenza A virus, UniProt P0DOF5); format: cell-based
A/M2 wt channel [2] = molecular target: T1, A/M2 wt channel; settings: cited from earlier work
[3] = molecular target: T2, transmembrane domain of wt A/M2 protein (M2TM, residues 22–46) (Influenza A virus, UniProt P0DOF5); format: binding; settings: pH 7.4
T2 sequence (P0DOF5 22-46 limits assumed): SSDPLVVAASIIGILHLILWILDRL

[4] = tested on: wt influenza virus (A/Udorn/72); format: cell-based

T1 sequence (P0DOF5 whole entry): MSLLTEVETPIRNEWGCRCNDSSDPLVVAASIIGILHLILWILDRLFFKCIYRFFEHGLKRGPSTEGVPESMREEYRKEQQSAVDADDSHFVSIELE

NC1CCC2(CCCCC2)CC1 [Compound 8, spiro[5.5]undecan-3-amine]
voltage dependence of inhibition (A/M2 wt channel [1]): voltage-independence | reversibility of inhibition / washout rate (A/M2 wt channel [1]; pH 8.5): not significantly different from that of amantadine

NC12CC3CC(CC(C3)C1)C2 [Amantadine, amantadine]
voltage dependence of inhibition (A/M2 wt channel [1]): voltage-independence | reversal of inhibition in the time frame of 5 min (A/M2 wt channel [1]; pH 8.5): about 10% | dissociation rate constant (κoff) (A/M2 wt channel [2]): 10^−4 s^−1

C1CCC2(CC1)CCN(C1=NCCN1)CC2 [BL-1743, 2-[3-azaspiro([5],[5])undecanol]-2-imidazoline]
% remaining activity after application of 100 μM compound (A/M2 wt channel [1]): 25.3±1.3% | voltage dependence of inhibition (A/M2 wt channel [1]): voltage-independence | IC50 (A/M2 wt channel [1]; pH 5.5): 45.3 ± 3.92 µM | reversibility of inhibition / washout rate (A/M2 wt channel [1]; pH 8.5): essentially fully reversible | activity (A/M2 wt channel [1]; read-out: AM2 channel activity after 100μM compound inhibition): 25% | Kd [3]: 194 µM | concentrations at which plaque formation was inhibited [4]: 50 to 100 µM | dissociation rate constant (κoff) (A/M2 wt channel [2]): 10^−3 s^−1 | second-order rate constant (κon) for association and inhibition (A/M2 wt channel [2]): 720 M⁻¹ s⁻¹
